Data: patent US20170157135A1 (Novogen Limited, priority 2013, published 2017)

What was measured:
Type in all cases: cell-based
[1] = test system: PC3 prostate cancer cells; assay: Anti-proliferative assay (cell-titre luminescent), PC3; conditions: PC3, 72 hours, luminescence
Experimental: (§1) The ability of compounds 2002, 2009 and 2013-2064 to inhibit the proliferation of cancer cells representative of neuroblastoma, melanoma, prostate cancer, colorectal cancer, non-small cell lung carcinoma, and triple negative breast cancer was assessed. These studies were conducted by contract research (GVK-BIO). Briefly, a pre-determined number of cells as calculated from cell growth assays for each of the cell lines employed were seeded into their respective culture medium (using ATCC culture parameters—http://www.atcc.org) and cultured for 24 h at 37° C. and 5% CO2 in 96-well culture plates. Once attached, each cell line was then exposed to various concentrations of each respective analogue (30, 10, 3, 1, 0.3 and 0.1 μM), cultured for a further 72 hours and exposed to cell-titre luminescent reagent (100 μL/well) for a further 30 minutes). Luminescence was captured using an EnVision multilabel reader and the data for each analogue concentration compared against no treatment control. Cell viability was normalized to control (vehicle alone) and dose-response curves, and half maximal effective concentration (EC50) values were determined using Graph Pad Prism 6 (nonlinear regression sigmoidal dose-response variable slope).

[2] = test system: MDA-MB-231 breast cancer cells; assay: Anti-proliferative assay (cell-titre luminescent), MDA-MB-231; conditions: Homo sapiens; MDA-MB-231, 72 hours, luminescence
Experimental: as §1

[3] = test system: CaCo2 colorectal cancer cells; assay: Anti-proliferative assay (cell-titre luminescent), CaCo2; conditions: Homo sapiens, Caco-2; CaCo2, 72 hours, luminescence
Experimental: as §1

[4] = test system: SK-Mel-28 melanoma cells; assay: Anti-proliferative assay (cell-titre luminescent), SK-Mel-28; conditions: Homo sapiens; SK-Mel-28, 72 hours, luminescence
Experimental: as §1

[5] = test system: A549 lung (NSLC) cells; assay: Anti-proliferative assay (cell-titre luminescent), A549; conditions: Homo sapiens; A549, 72 hours, luminescence
Experimental: as §1

[6] = test system: DU145 prostate cancer cells; assay: Anti-proliferative assay (cell-titre luminescent), DU145; conditions: Homo sapiens, DU-145; DU145, 72 hours, luminescence
Experimental: as §1

[7] = test system: SK-N-SH neuroblastoma cells; assay: Anti-proliferative assay (cell-titre luminescent), SK-N-SH; conditions: Homo sapiens, 72 hours, luminescence
Experimental: as §1

| SMILES | IC50 [1] | IC50 [2] | IC50 [3] | IC50 [4] | IC50 [5] | IC50 [6] | IC50 [7] |
| --- | --- | --- | --- | --- | --- | --- | --- |
| COc1ccc2c(c1)c(C(=O)N1CCN(CCc3cccc(F)c3)CC1)c(C)n2CCCN1CCN(C)CC1 [Compound 2059, (4-(3-fluorophenethyl)piperazin-1-yl)(5-methoxy-2-methyl-1-(3-(4-methylpiperazin-1-yl)propyl)-1H-indol-3-yl)methanone] | 9.2 µM | 7 µM | 19.6 µM | 3.8 µM | 10.2 µM | 10.1 µM | 4.2 µM |
| Cc1c(/C=C/C(=O)N2CCN(CCc3ccc4c(c3)OCO4)CC2)c2ccccc2n1CCCN(C)C [Compound 2014, (E)-1-(4-(2-(benzo[d][1,3]dioxol-5-yl)ethyl)piperazin-1-yl)-3-(1-(3-(dimethylamino)propyl)-2-methyl-1H-indol-3-yl)prop-2-en-1-one] | 6.5 µM | 6.2 µM | 9 µM | 3.2 µM | 25.7 µM | 7.6 µM | 3.7 µM |
| COc1ccc2c(c1)c(/C=C/C(=O)N1CCN(CCc3ccc4c(c3)OCO4)CC1)c(C)n2CCCN1CCN(C)CC1 [Compound 2031, (E)-1-(4-(2-(benzo[d][1,3]dioxol-5-yl)ethyl)piperazin-1-yl)-3-(5-methoxy-2-methyl-1-(3-(4-methylpiperazin-1-yl)propyl)-1H-indol-3-yl)prop-2-en-1-one] | 2.1 µM | 5.2 µM | 3.7 µM | 3.9 µM | 4.2 µM | 6.2 µM | 3.7 µM |
| COc1cccc(CCN2CCN(C(=O)/C=C/c3c(C)n(CCCN(C)C)c4ccccc34)CC2)c1 [Compound 2016, (E)-3-(1-(3-(dimethylamino)propyl)-2-methyl-1H-indol-3-yl)-1-(4-(3-methoxyphenethyl)piperazin-1-yl)prop-2-en-1-one] | 5.8 µM | 10.8 µM | 8.9 µM | 4.1 µM | 4.8 µM | 5.4 µM | 5 µM |
| COc1ccc(CCN2CCN(C(=O)c3c(C)n(CCCN(C)C)c4ccc(OC)cc34)CC2)cc1 [Compound 2045, (1-(3-(dimethylamino)propyl)-5-methoxy-2-methyl-1H-indol-3-yl)(4-(4-methoxyphenethyl)piperazin-1-yl)methanone] | > 30 µM | > 30 µM | > 30 µM | > 30 µM | > 30 µM | > 30 µM | > 30 µM |
| Cc1c(/C=C/C(=O)N2CCN(CCc3cccc(F)c3)CC2)c2ccccc2n1CCCN(C)C [Compound 2015, (E)-3-(1-(3-(dimethylamino)propyl)-2-methyl-1H-indol-3-yl)-1-(4-(3-fluorophenethyl)piperazin-1-yl)prop-2-en-1-one] | 12.4 µM | 21.1 µM | 15.9 µM | 3.9 µM | 14.1 µM | 39.2 µM | 8.8 µM |
| COc1ccc2c(c1)c(C(=O)N1CCN(CCc3ccc4c(c3)OCO4)CC1)c(C)n2CCCN1CCN(C)CC1 [Compound 2058, (4-(2-(benzo[d][1,3]dioxol-5-yl)ethyl)piperazin-1-yl)(5-methoxy-2-methyl-1-(3-(4-methylpiperazin-1-yl)propyl)-1H-indol-3-yl)methanone] | 12 µM | 29.8 µM | 10.8 µM | 4.8 µM | 13.9 µM | 21.1 µM | 8 µM |
| COc1ccc2c(c1)c(C(=O)N1CCN(CCc3ccc(F)cc3)CC1)c(C)n2CCCN1CCN(C)CC1 [Compound 2056, (4-(4-fluorophenethyl)piperazin-1-yl)(5-methoxy-2-methyl-1-(3-(4-methylpiperazin-1-yl)propyl)-1H-indol-3-yl)methanone] | 10.8 µM | 13.9 µM | 10.1 µM | 4.8 µM | 14.7 µM | 18.9 µM | 11.2 µM |
| COc1ccc2c(c1)c(/C=C/C(=O)N1CCN(CCc3ccc(F)cc3)CC1)c(C)n2CCCN(C)C [Compound 2018, (E)-3-(1-(3-(dimethylamino)propyl)-5-methoxy-2-methyl-1H-indol-3-yl)-1-(4-(4-fluorophenethyl)piperazin-1-yl)prop-2-en-1-one] | 8 µM | 5.7 µM | 38 µM | 4.3 µM | 15.9 µM | 12.1 µM | 8.5 µM |
| COc1ccc(CCN2CCN(C(=O)/C=C/c3c(C)n(CCCN4CCN(C)CC4)c4ccc(OC)cc34)CC2)cc1 [Compound 2030, (E)-3-(5-methoxy-2-methyl-1-(3-(4-methylpiperazin-1-yl)propyl)-1H-indol-3-yl)-1-(4-(4-methoxyphenethyl)piperazin-1-yl)prop-2-en-1-one] | 4 µM | 4.3 µM | 5.4 µM | 3.4 µM | 7.9 µM | 7.9 µM | 3.6 µM |
| COc1ccc2c(c1)c(C(=O)N1CCN(CCc3ccc(F)cc3)CC1)c(C)n2CCCN(C)C [Compound 2044, (1-(3-(dimethylamino)propyl)-5-methoxy-2-methyl-1H-indol-3-yl)(4-(4-fluorophenethyl)piperazin-1-yl)methanone] | 11 µM | 20.4 µM | 11.9 µM | 6.6 µM | 12.2 µM | 10.1 µM | 6.6 µM |
| CCN(CC)CCCn1c(C)c(C(=O)N2CCN(CCc3ccc4c(c3)OCO4)CC2)c2cc(OC)ccc21 [Compound 2052, (4-(2-(benzo[d][1,3]dioxol-5-yl)ethyl)piperazin-1-yl)(1-(3-(diethylamino)propyl)-5-methoxy-2-methyl-1H-indol-3-yl)methanone] | 10.9 µM | 12.7 µM | 16 µM | 5.7 µM | 11.8 µM | 9.2 µM | 10.9 µM |
| CCN(CC)CCCn1c(C)c(/C=C/C(=O)N2CCN(CCc3ccc(OC)cc3)CC2)c2cc(OC)ccc21 [Compound 2024, (E)-3-(1-(3-(diethylamino)propyl)-5-methoxy-2-methyl-1H-indol-3-yl)-1-(4-(4-methoxyphenethyl)piperazin-1-yl)prop-2-en-1-one] | 5.7 µM | 4.1 µM | 5.3 µM | 3 µM | 7.7 µM | 8.4 µM | 3.4 µM |
| COc1cccc(CCN2CCN(C(=O)c3c(C)n(CCCN(C)C)c4ccc(OC)cc34)CC2)c1 [Compound 2048, (1-(3-(dimethylamino)propyl)-5-methoxy-2-methyl-1H-indol-3-yl)(4-(3-methoxyphenethyl)piperazin-1-yl)methanone] | > 30 µM | > 30 µM | > 30 µM | > 30 µM | > 30 µM | > 30 µM | > 30 µM |
| COc1ccc(CCN2CCN(C(=O)c3c(C)n(CCCN4CCN(C)CC4)c4ccc(OC)cc34)CC2)cc1 [Compound 2057, (5-methoxy-2-methyl-1-(3-(4-methylpiperazin-1-yl)propyl)-1H-indol-3-yl)(4-(4-methoxyphenethyl)piperazin-1-yl)methanone] | 9 µM | 7.5 µM | 13.3 µM | 4.4 µM | 21.1 µM | 30 µM | 7.2 µM |
| CCN(CC)CCCn1c(C)c(C(=O)N2CCN(CCc3cccc(OC)c3)CC2)c2cc(OC)ccc21 [Compound 2054, (1-(3-(diethylamino)propyl)-5-methoxy-2-methyl-1H-indol-3-yl)(4-(3-methoxyphenethyl)piperazin-1-yl)methanone] | 6.9 µM | 11.8 µM | > 30 µM | 5.4 µM | 17.8 µM | > 30 µM | 10.4 µM |
| Cc1c(C(=O)N2CCN(CCc3ccc4c(c3)OCO4)CC2)c2ccccc2n1CCCN(C)C [Compound 2040, (4-(2-(benzo[d][1,3]dioxol-5-yl)ethyl)piperazin-1-yl)(1-(3-(dimethylamino)propyl)-2-methyl-1H-indol-3-yl)methanone] | > 30 µM | > 30 µM | > 30 µM | 16.4 µM | > 30 µM | > 30 µM | 26.4 µM |
| COc1ccc(CCN2CCN(C(=O)/C=C/c3c(C)n(CCCN(C)C)c4ccc(OC)cc34)CC2)cc1 [Compound 2019, (E)-3-(1-(3-(dimethylamino)propyl)-5-methoxy-2-methyl-1H-indol-3-yl)-1-(4-(4-methoxyphenethyl)piperazin-1-yl)prop-2-en-1-one] | 9.3 µM | 5.1 µM | 25.1 µM | 6.3 µM | 10.6 µM | 14.8 µM | 5.5 µM |
